This is an account of results in patent US11701371B2, “ENPP1 inhibitors and their use for the treatment of cancer” (THE BOARD OF TRUSTEES OF THE LELAND STANFORD JUNIOR …, priority 2017, dated 2023).

Structures are written as SMILES.

The test system of one assay is 4T1-luciferase tumor. Put plainly: 4T1-luciferase tumor model with IR, cGAMP and anti-CTLA-4: tumor volume and survival. It is filed as in vivo, mouse. To be noted: single agent intratumoral on day 2, 4 and 7 after 20 Gy IR.
The target of assay [1] is T1, purified recombinant mouse ENPP1 (Mus musculus (Mouse), UniProt P06802). Put plainly: ENPP1 activity assay using TMP-pNP as a substrate. The class given is biochemical. The conditions noted are these: TMP-pNP 2 μM, mouse ENPP1 0.5 nM, pH 7.5. Here is the method: Selected compounds of Table 1, Table 2 and other derivatives were prepared and assessed in an ENPP1 activity assay using thymidine monophosphate paranitrophenol (TMP-pNP) as a substrate. Enzyme reactions were prepared with TMP-pNP (2 μM), 5-fold dilutions of ENPP1 inhibitor, and purified recombinant mouse ENPP1 (0.5 nM) in 100 mM Tris, 150 mM NaCl, 2 mM CaCl2, 200 μM ZnCl2, pH 7.5 at room temperature. Reaction progress was monitored by measuring absorbance at 400 nm of paranitrophenolate produced by the reaction for 20 minutes.

For assay [2], the target named is T1, purified recombinant mouse ENPP1. Put plainly: ENPP1 enzyme activity assay using 32P cGAMP as a substrate. The class given is biochemical. To be noted: 32P-cGAMP 5 μM, mouse ENPP1 20 nM, pH 7.5, 5 hours.

T1 sequence (P06802 whole entry): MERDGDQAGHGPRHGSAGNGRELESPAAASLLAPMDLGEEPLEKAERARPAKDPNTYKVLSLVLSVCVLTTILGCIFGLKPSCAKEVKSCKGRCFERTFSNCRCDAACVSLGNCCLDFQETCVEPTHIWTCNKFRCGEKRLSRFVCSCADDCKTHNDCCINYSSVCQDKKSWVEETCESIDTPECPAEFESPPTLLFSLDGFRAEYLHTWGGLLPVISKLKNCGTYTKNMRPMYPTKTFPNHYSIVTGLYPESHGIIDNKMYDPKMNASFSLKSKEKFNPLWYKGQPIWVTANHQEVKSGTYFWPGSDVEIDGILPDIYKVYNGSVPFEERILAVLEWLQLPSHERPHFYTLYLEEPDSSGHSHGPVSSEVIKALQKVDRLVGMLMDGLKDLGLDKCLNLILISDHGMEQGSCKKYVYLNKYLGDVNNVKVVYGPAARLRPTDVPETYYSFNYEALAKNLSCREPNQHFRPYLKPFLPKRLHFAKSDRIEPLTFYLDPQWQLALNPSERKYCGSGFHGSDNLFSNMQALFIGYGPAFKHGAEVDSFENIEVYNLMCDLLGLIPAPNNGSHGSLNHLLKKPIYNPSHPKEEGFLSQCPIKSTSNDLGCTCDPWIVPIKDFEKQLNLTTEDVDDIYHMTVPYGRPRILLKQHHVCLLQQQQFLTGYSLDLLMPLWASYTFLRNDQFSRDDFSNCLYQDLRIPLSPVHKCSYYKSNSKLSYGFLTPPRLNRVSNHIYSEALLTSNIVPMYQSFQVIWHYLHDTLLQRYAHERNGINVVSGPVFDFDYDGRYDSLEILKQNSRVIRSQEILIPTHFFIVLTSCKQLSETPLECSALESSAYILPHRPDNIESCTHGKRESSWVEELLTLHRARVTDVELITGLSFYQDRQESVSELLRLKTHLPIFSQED

Consider `Nc1nc2c(ncn2[C@@H]2O[C@@H]3COP(=O)(O)O[C@H]4[C@@H](O)[C@H](n5cnc6c(N)ncnc65)O[C@@H]4COP(=O)(O)O[C@@H]2[C@@H]3O)c(=O)[nH]1` [cGAMP, cyclic guanosine monophosphate-adenosine monophosphate], for which, in the assay on 4T1-luciferase tumor, the “tumor shrinkage effect on top of IR treatment” value is recorded as “no effect over IR treatment”.

For the molecule `O=P(O)(O)CCC1CCN(c2ncnc3nc[nH]c23)CC1` [Compound 68], the IC50 in assay [1] was in the range of 0.5 to 5 µM.

On to `COc1ccc2c(N3CCC(CCP(=O)(O)O)CC3)nc(C)nc2c1` [Compound 12], for which the IC50 in assay [2] lay in the range of 0.5 to 5 µM.
